# Test results from publication PMC7932537, “Quantitative profiling of protease specificity” (PLoS Computational Biology, 2021).
# Legend:
# MMP-9 = assay: Substrate phage display with NGS: relative probability (RP) of P3-P1' tetramer clusters; type: biochemical, human; conditions: for MMP9 relative probability (RP): MMP9 tetramers from unique substrates, unrounded values; for normalized RP - MMP9: normalized RP of matching tetramer; for corresponding MMP9 relative probability (RP): MMP2 tetramers from unique substrates, RP of same tetramer for MMP9
# MMP-2 = assay: as above; type: biochemical, human; conditions: for avg_RP: MMP2 - no binning; for relative probability (RP) of matching tetramer: P3-P1' tetramer matching the MS detected MMP2 cleavage sequence, RP_above_4.5; for corresponding MMP2 relative probability (RP): MMP9 tetramers from unique substrates, RP of same tetramer for MMP2; for normalized RP - MMP2: normalized RP of matching tetramer; for MMP2 relative probability (RP): MMP2 tetramers from unique substrates, unrounded values
# [1] = RP of the P3-P1' tetramer, MMP9 substrate phage display/NGS, tetramers of physiologic MEROPS substrates common to MMP2 and MMP9
# [2] = RP of the P3-P1' tetramer, MMP2 substrate phage display/NGS, tetramers of physiologic MEROPS substrates common to MMP2 and MMP9
# [3] = MMP9, RP of matching P3-P1' tetramer, common set of MMP2-9 selectome
# [4] = MMP9, RP of the P3-P1' tetramer matching the MS detected cleavage, RP above 4.7, substrate phage display with NGS
# [5] = RP of matching tetramer, common MMP2-9 selectome, RP above KL threshold
# [6] = average relative probability of the P3-P1' tetramer, redundant tetramers have been averaged out
# [7] = MMP2, RP of matching P3-P1' tetramer, common set of MMP2-9 selectome, RP above KL threshold
# [8] = RP of matching tetramer, common MMP2-9 selectome
# [9] = MMP9, RP of the P3-P1' tetramer contained in the hexamer substrate (substrate phage display, NGS)
# [10] = RP of the P3-P1' tetramer cluster contained in the hexamer, 200 nM MMP-2, 2 h, 37°C, two rounds of selection
# [11] = average relative probability of the tetramer, redundant tetramers averaged out
# [12] = RP of matching tetramer, unique part of MMP2 selectome
# [13] = RP of matching tetramer, unique part of MMP2 selectome, RP above KL threshold
# [14] = RP according to MMP2, P3-P1' tetramer of unique physiologic MMP2 substrates from MEROPS
# [15] = tetramer projected onto MMP-9 cleavage sites determined by Prudova et al. (2010)
# [16] = RP according to MMP9, P3-P1' tetramer of unique physiologic MMP9 substrates from MEROPS
substance,measurement,setting,value
PKGA,relative probability (RP) (acc.to MMP9),MMP-9; [1],1.22
same,relative probability (RP) (acc.to MMP2),MMP-2; [2],0
VSHY,relative probability (RP) (acc.to MMP9),MMP-9; [1],15.49
same,relative probability (RP) (acc.to MMP2),MMP-2; [2],21.33
LAWL,relative probability (RP) (acc.to MMP9),MMP-9; [3],19.78
same,relative probability (RP),MMP-9; [4],19.78
same,relative probability (RP) (acc.to MMP9),MMP-9; [5],19.78
same,avg_RP,MMP-2; [6],22.0358
same,relative probability (RP) (acc.to MMP2),MMP-2; [7],22.04
same,relative probability (RP) of matching tetramer,MMP-2,22.04
same,relative probability (RP) (acc.to MMP2),MMP-2; [8],22.04
AAGV,relative probability (RP) (acc.to MMP9),MMP-9; [1],0.05
same,relative probability (RP) (acc.to MMP2),MMP-2; [2],0.76
PSPADI,relative probability (RP),MMP-9; [9],25.0899
same,relative probability (RP),MMP-2; [10],23.2522
MSPANI,relative probability (RP),MMP-9; [9],46.3162
same,relative probability (RP),MMP-2; [10],33.5547
PAAV,relative probability (RP),MMP-9; [4],36.05
same,relative probability (RP) (acc.to MMP9),MMP-9; [5],36.05
same,relative probability (RP) (acc.to MMP2),MMP-2; [8],30.72
LRGL,relative probability (RP) (acc.to MMP9),MMP-9; [1],28.75
same,relative probability (RP) (acc.to MMP2),MMP-2; [2],20.33
RMMREL,relative probability (RP),MMP-9; [9],21.3182
same,relative probability (RP),MMP-2; [10],19.1524
EPVSLA,relative probability (RP),MMP-9; [9],42.3557
same,relative probability (RP),MMP-2; [10],32.502
PMALMD,relative probability (RP),MMP-9; [9],48.9468
same,relative probability (RP),MMP-2; [10],34.1737
QGAI,relative probability (RP) (acc.to MMP9),MMP-9; [1],0
same,relative probability (RP) (acc.to MMP2),MMP-2; [2],1.94
PSGL,relative probability (RP) (acc.to MMP9),MMP-9; [1],47.39
same,relative probability (RP) (acc.to MMP2),MMP-2; [2],35.5
AMFL,MMP9 relative probability (RP),MMP-9,1.089
same,corresponding MMP2 relative probability (RP),MMP-2,15.1166
HFFK,relative probability (RP) (acc.to MMP9),MMP-9; [1],0.27
same,relative probability (RP) (acc.to MMP2),MMP-2; [2],0.14
GEPRGQ,relative probability (RP),MMP-9; [9],42.1179
same,relative probability (RP),MMP-2; [10],29.4864
TQPKAM,relative probability (RP),MMP-9; [9],48.8005
same,relative probability (RP),MMP-2; [10],31.5595
PMAL,relative probability (RP),MMP-9; [4],48.95
same,relative probability (RP) (acc.to MMP9),MMP-9; [5],48.95
same,avg_RP,MMP-2; [11],34.1737
same,relative probability (RP) (acc.to MMP2),MMP-2; [8],34.17
GSAL,relative probability (RP) (acc.to MMP9),MMP-9; [12],2.8
same,normalized RP - MMP9,MMP-9; unique part of MMP2 selectome,0.05346
same,relative probability (RP) of matching tetramer,MMP-2,9.27
same,relative probability (RP) (acc.to MMP2),MMP-2; [13],9.27
same,normalized RP - MMP2,MMP-2; unique part of MMP2 selectome,0.2538
PPGE,relative probability (RP) (acc.to MMP9),MMP-9; [1],0.11
same,relative probability (RP) (acc.to MMP2),MMP-2; [2],0
PVAIPM,relative probability (RP),MMP-9; [9],44.9732
same,relative probability (RP),MMP-2; [10],32.4892
PEAQ,MMP9 relative probability (RP),MMP-9,2.403
same,corresponding MMP2 relative probability (RP),MMP-2,6.464
MGPLGQ,relative probability (RP),MMP-9; [9],44.3652
same,relative probability (RP),MMP-2; [10],28.8115
RGEL,corresponding MMP9 relative probability (RP),MMP-9,0.3681
same,MMP2 relative probability (RP),MMP-2,14.9989
same,Relative probability (RP) rank,MMP-2; [14],3096
same,relative probability (RP),MMP-2; [14],15
PRHS,relative probability (RP) (acc.to MMP9),MMP-9; [3],18.44
same,relative probability (RP),MMP-9; [4],18.44
same,relative probability (RP) (acc.to MMP9),MMP-9; [5],18.44
same,relative probability (RP) (acc.to MMP2),MMP-2; [7],13.22
same,relative probability (RP) of matching tetramer,MMP-2,13.22
same,relative probability (RP) (acc.to MMP2),MMP-2; [8],13.22
KSPQSY,relative probability (RP),MMP-9; [9],42.416
same,relative probability (RP),MMP-2; [10],26.1515
PVAV,relative probability (RP) (acc.to MMP9),MMP-9; [3],32.82
same,relative probability (RP),MMP-9; [4],32.82
same,relative probability (RP) (acc.to MMP9),MMP-9; [5],32.82
same,relative probability (RP) (acc.to MMP2),MMP-2; [7],27.53
same,relative probability (RP) of matching tetramer,MMP-2,27.53
same,relative probability (RP) (acc.to MMP2),MMP-2; [8],27.53
PKWM [P3-P1' tetramer cluster],relative probability (RP),"MMP-9; tetramer probability in MMP9 set / naive library, 200 nM protease, 2 h, 37°C",51.5185
same,avg_RP,MMP-2; [11],23.7433
ATPY,relative probability (RP) (acc.to MMP9),MMP-9; [3],9.04
same,relative probability (RP),MMP-9; [4],9.04
same,relative probability (RP) (acc.to MMP9),MMP-9; [5],9.04
same,relative probability (RP) (acc.to MMP2),MMP-2; [7],12.49
same,relative probability (RP) of matching tetramer,MMP-2,12.49
same,relative probability (RP) (acc.to MMP2),MMP-2; [8],12.49
RRPRPL,relative probability (RP),MMP-9; [9],46.7888
same,relative probability (RP),MMP-2; [10],34.3303
APALWI,relative probability (RP),MMP-9; [9],27.3829
same,relative probability (RP),MMP-2; [10],24.3606
GPARPY,relative probability (RP),MMP-9; [9],36.8874
same,relative probability (RP),MMP-2; [10],20.5004
MGSL,corresponding MMP9 relative probability (RP),MMP-9,3.398
same,MMP2 relative probability (RP),MMP-2,28.8961
same,Relative probability (RP) rank,MMP-2; [14],452
same,relative probability (RP),MMP-2; [14],28.9
PHGLAT,relative probability (RP),MMP-9; [9],46.2798
same,relative probability (RP),MMP-2; [10],32.9009
PESW,relative probability (RP) (acc.to MMP9),MMP-9; [12],1.77
same,normalized RP - MMP9,MMP-9; unique part of MMP2 selectome,0.03379
same,relative probability (RP) of matching tetramer,MMP-2,4.73
same,relative probability (RP) (acc.to MMP2),MMP-2; [13],4.73
same,normalized RP - MMP2,MMP-2; unique part of MMP2 selectome,0.1295
PLRQIG,relative probability (RP),MMP-9; [9],29.0862
same,relative probability (RP),MMP-2; [10],11.8624
INPQGL,relative probability (RP),MMP-9; [9],47.8621
same,relative probability (RP),MMP-2; [10],33.5241
YSNI,corresponding MMP9 relative probability (RP),MMP-9,0.05486
same,avg_RP,MMP-2; [6],14.6847
same,MMP2 relative probability (RP),MMP-2,14.6847
same,Relative probability (RP) rank,MMP-2; [14],3195
same,relative probability (RP),MMP-2; [14],14.68
PTGS,relative probability (RP) (acc.to MMP9),MMP-9; [1],0.05
same,relative probability (RP) (acc.to MMP2),MMP-2; [2],0.04
HARL,corresponding MMP9 relative probability (RP),MMP-9,0.3259
same,MMP2 relative probability (RP),MMP-2,17.6482
same,Relative probability (RP) rank,MMP-2; [14],2341
same,relative probability (RP),MMP-2; [14],17.65
PGPIGW,relative probability (RP),MMP-9; [9],36.9425
same,relative probability (RP),MMP-2; [10],31.1565
IGRF,corresponding MMP9 relative probability (RP),MMP-9,0.4689
same,MMP2 relative probability (RP),MMP-2,13.8957
same,Relative probability (RP) rank,MMP-2; [14],3460
same,relative probability (RP),MMP-2; [14],13.9
LANM,relative probability (RP) (acc.to MMP9),MMP-9; [1],5.47
same,avg_RP,"MMP-2; average relative probability (RP) of the P3-P1' tetramer, redundant tetramers have been averaged out",31.4114
same,relative probability (RP) (acc.to MMP2),MMP-2; [2],31.41
GPRYLM,relative probability (RP),MMP-9; [9],44.5304
same,relative probability (RP),MMP-2; [10],30.5447
PKFL [P3-P1' tetramer cluster],relative probability (RP),MMP-9; [15],42.75
same,avg_RP,MMP-2; [11],23.745
SRPAEF,relative probability (RP),MMP-9; [9],11.7405
same,relative probability (RP),MMP-2; [10],19.4662
IGGL [P3-P1' tetramer cluster],relative probability (RP) (acc.to MMP9),MMP-9; [12],4.4
same,normalized RP - MMP9,MMP-9; unique part of MMP2 selectome,0.084
same,relative probability (RP),MMP-9; [15],4.4
same,relative probability (RP) of matching tetramer,MMP-2,26.48
same,relative probability (RP) (acc.to MMP2),MMP-2; [13],26.48
same,normalized RP - MMP2,MMP-2; unique part of MMP2 selectome,0.7251
NEGL,relative probability (RP) (acc.to MMP9),MMP-9; [1],0
same,relative probability (RP) (acc.to MMP2),MMP-2; [2],0.16
IRPKHF,relative probability (RP),MMP-9; [9],30.1694
same,relative probability (RP),MMP-2; [10],19.1404
PIQW,corresponding MMP9 relative probability (RP),MMP-9,1.638
same,Relative probability (RP) rank,MMP-9; [16],11221
same,relative probability (RP),MMP-9; [16],1.64
same,relative probability (RP) (acc.to MMP9),MMP-9; [1],1.64
same,MMP2 relative probability (RP),MMP-2,8.258
same,Relative probability (RP) rank,MMP-2; [14],5694
same,relative probability (RP),MMP-2; [14],8.26
same,relative probability (RP) (acc.to MMP2),MMP-2; [2],8.26
RPEDLR,relative probability (RP),MMP-9; [9],13.0748
same,relative probability (RP),MMP-2; [10],6.012
GQPMNL,relative probability (RP),MMP-9; [9],48.9575
same,relative probability (RP),MMP-2; [10],32.5586
PRML [P3-P1' tetramer cluster],relative probability (RP),MMP-9; [15],42.29
same,avg_RP,MMP-2; [11],30.5973
LGTY,corresponding MMP9 relative probability (RP),MMP-9,0.2972
same,MMP2 relative probability (RP),MMP-2,6.755
same,Relative probability (RP) rank,MMP-2; [14],6426
same,relative probability (RP),MMP-2; [14],6.75
MAGM,corresponding MMP9 relative probability (RP),MMP-9,0.06237
same,MMP2 relative probability (RP),MMP-2,21.4504
same,Relative probability (RP) rank,MMP-2; [14],1484
same,relative probability (RP),MMP-2; [14],21.45
GLSL,relative probability (RP) (acc.to MMP9),MMP-9; [1],4.42
same,relative probability (RP) (acc.to MMP2),MMP-2; [2],0.18
